The values below come from patent US20230052667A1, “AGENT FOR MAINTAINING OR ENHANCING COLLAGEN PRODUCTION ABILITY” (Shiseido Company, Ltd., priority 2020, published 2023).

The subject of the assay is human skin-derived fibroblasts. Nature of the assay: Collagen quantification in fibroblasts after artificial sunlight irradiation through the wavelength conversion substance. The settings on record: artificial sunlight 80 minutes passed through substance (10% phosphor film or 1% aqueous solution, no cell contact); collagen measured 3 days after irradiation; UV-only control 14 μg collagen/well. Format: cell-based. Here is the method:
Preparation method: A film containing 10% Zinc Oxide phosphor, a film containing 10% magnesium titanate phosphor were used, and C-phycocyanin was dissolved in ultrapure water at a concentration of 1% and used as a solution. • Cells: human skin-derived fibroblasts • Collagen assay kit: Cosmo Bio Co., COL-001 • DNA-quantitation kit: Cosmo Bio Co., AK06 • Artificial Sunlight Irradiation System: Celick Corporation: XC-500BF
Human skin-derived fibroblasts cultured in 75 cm^2 flasks were treated with trypsin, and after harvesting the cells, the cells were seeded at a density of 2×10^5 cells/dish using medium on five 6-well plates according to the plate arrangement below. […]
After 3 days from illumination, culture supernatants were removed from wells for collagen quantitation in each treatment group and washed with PBS. Collagen in human fibroblast layers was extracted and measured according to the protocol of the collagen quantitation kit (https://search.cosmobio.co.jp/cosmo_searchp/search_gate2/docs/CSR_/COL001.20190327.pdf). In addition, the amount of DNA in samples after collagen extraction was determined for correction of collagen quantitative results according to the protocol of the Quantitative Kit of DNA (https://search.cosmobio.co.jp/cosmo)_search_p/search_gate2/docs/PMC_/AK06.20140507.pdf).

Regarding C-phycocyanin, the “collagen produced by UV-irradiated fibroblasts” value is 25 μg collagen/well.
